Test results reported in patent US20130302888A1, “CELL CULTURE METHOD AND SYSTEM FOR ESTABLISHING AN IN VITRO MODEL OF THE INTESTINAL BARRIER” (GATTEFOSSE SAS, priority 2011, published 2013).

Key:
[1] = system: Caco-2/HT29-MTX cocultures
[2] = system: HT29-MTX monolayers; conditions: pH 7.4

- Papp, effect of adding HT29-MTX to Caco-2 cells [1]: drastically increases the Papp
- Papp [2]: 2-3 10^−6 cm/s
Substance: Lucifer yellow [LY]
